Test results reported in US7897641B2, “Composition for the prevention and/or treatment of the cytotoxic effects induced by the use of immunosuppressive agents” (Sigma-Tau Industrie Farmaceutiche Riunite S.p.A., priority 2000, dated 2011).
Read-outs that look alike come from different tables or passages of the source.

Legend:
[1] = tested on: isolated, perfused rat kidneys; test: Glomerular and tubular morphometric abnormalities induced by cyclosporin-A in perfused rat kidney; conditions: for Morphometric indices, tubular ID/ED / Morphometric indices, glomerular CD/BD: kidneys perfused with cyclosporin-A 2 mg/L, alone or with treatment 5 mg/L; for Morphometric indices, tubular ID/ED: control 0.36 ± 0.03; for Morphometric indices, glomerular CD/BD: control 0.93 ± 0.09
Source text: (§1) In these tests a group of rats were used whose kidneys were isolated, after bilateral nephrectomy, and perfused according to the technique described by Schure and Maack.
(§2) The kidneys thus isolated were perfused by means of a pulsating pump both with a solution containing cyclosporin A or tacrolimus and with a solution containing propionyl L-carnitine or glycine or the two components in combination.
The parameters observed on the kidneys thus perfused were the capillary diameters (CD) and the Bowman's capsule diameters (BD) and equally the external and internal diameter (ID) and also the diameter at the level of the basal membrane (ED) of at least 20 proximal tubules.

[2] = tested on: isolated, perfused rat kidneys; test: Reduction of renal ATP induced by cyclosporin-A; conditions: for ATP: kidneys perfused with cyclosporin-A, alone or with treatment, control 6.70 ± 0.51
Description: as §1, §2
(§3) Lipid peroxidation was measured on samples of renal cortex as described by Longoni (Longoni B., Int. J. Tissue React., 21.7.1997-Lowry O. H., J. Biol. Bioch., 193:265, 1951) and ATP concentrations were determined according to the method described by Sumpio (Sumpio B. E., Am. J. Physiol., 247, PT2, 1047, 1984).

[3] = tested on: isolated, perfused rat kidneys; test: Renal lipoperoxidation induced by cyclosporin-A (MDA + 4-HDA assay); conditions: for MDA + 4-HDA: renal cortex, kidneys perfused with cyclosporin-A, alone or with treatment, control 2.1 ± 0.91
Description: as §1, §2, §3

[4] = tested on: rats intoxicated with CCL4; test: Protection against liver damage in rats intoxicated with CCl4; type: in vivo, rat; conditions: treatment 300 mg/kg i.p. half an hour before CCl4; for Alanine aminotranferase activity (ALT): blood 24 h after CCl4 1 mL/kg of 20% solution, controls 12.5 ± 1.7; for Triglycerides: liver 24 h after CCl4, controls 6.5 ± 0.7
Description: CCl4 was administered at the dose of 1 mL/kg of a 20% solution in olive oil according to the technique described by Bernacchi (Bernacchi A. G., Brit. J. Exp. Pathol., 61:505, 1980).
Twenty-four hours after administration of CCl4, alanine aminotransferase was assayed as an indicator of enzymatic liver damage in blood from the animals thus treated, according to the colorimetric method described by Reitman (Reitman S., Am. J. Clin. Pathol., 28:56, […]), whereas from the livers taken from the same animals triglycerides were extracted with methanol and chloroform and assayed according to the method described by Kleir (Kleir, J. Biochem. Clin. Bohenescov., 9:243, 1999). The livers were then fixed with Carnon fixative and, after embedding in paraplast, were stained with haematoxylin and eosin.

perfused rat kidneys = test: Renal hypertension induced by cyclosporin-A or tacrolimus in perfused rat kidneys; conditions: treatment 5 mg/L each; for inhibition at 5 µg/mL: Rattus norvegicus
Source text: (§4) Using the isolated rat kidney according to the technique described by Maack (Maack P., Kidney Int., 30:142, 1986) and Shure (Shure K. H., Delugers Arch., 35:4, 1975) and perfusing it with a solution containing cyclosporin-A, it is possible to detect the toxic reactions this substance induces at the renal level relating both to the renal cytomorphology, particularly at the tubular level, and to arteriolar and […] capillary vasoconstriction and the release of enzymes such as alanine aminopeptidase (AAP) and N-acetylglucosaminidase (NAG), the release of which is regarded as a sign of cell damage, as is the release of vasoactive substances such as histamine and endothelin-1.
as §1, §2
Arterial pressure on the perfused kidney was measured by means of a manometer connected up to the renal artery.

[5] = tested on: isolated and perfused rat kidney; test: Tests of cyclosporin-A toxicity in isolated and perfused rat kidney, overall assessment; conditions: in words
Source text: as §4, §1, §2

Sprague Dawley rats [6] = test: Toxicology tests, acute i.p./oral and prolonged oral administration
Sprague Dawley rats [7] = conditions: rat, in vivo, 500 mg/kg
[8] = tested on: isolated, perfused rat kidneys; test: Renal tubular damage evaluated by release of alanine aminopeptidase (AAP) and N-acetylglucosaminidase (NAG) in isolated, perfused rat kidneys; conditions: treatment 5 mg/L each, after 5 min perfusion
Source text: as §4, §1, §2
(§5) A […] method was used to measure both AAP and NAG on the renal venous flow. Histamine and endothelin-1 were measured with a colorimetric method or with RIA.

[9] = tested on: isolated, perfused rat kidneys; test: Histamine and endothelin-1 release induced by cyclosporin-A or tacrolimus in isolated, perfused rat kidneys; conditions: for % inhibition of release, endothelin-1 / % inhibition of release, histamine: treatment 5 mg/L each, after 1 min perfusion
Source text: as §4, §1, §2, §5

[10] = induced by cyclosporin-A 2 mg/L

Compound	Morphometric indices, tubular ID/ED [1]	Morphometric indices, glomerular CD/BD [1]	ATP [2]	MDA + 4-HDA [3]	Alanine aminotranferase activity (ALT) [4]	Triglycerides [4]	protection of the kidney against morphological/vascular and cellular biochemical damage induced by cyclosporin-A or tacrolimus [5]	mortality or other sign of toxic effects (Sprague Dawley rats [6]; intraperitoneal, 0.5 g/kg each)	mortality or other sign of toxic effects (Sprague Dawley rats [6]; oral, 1 g/kg each)	% inhibition of release, AAP [8, 10]	% inhibition of release, NAG [8, 10]	% inhibition of release, AAP ([8]; induced by tacrolimus 400 μg/L)	% inhibition of release, NAG ([8]; induced by tacrolimus 400 μg/L)	% inhibition of release, endothelin-1 [9, 10]	% inhibition of release, histamine [9, 10]	% inhibition of release, endothelin-1 ([9]; induced by tacrolimus 400 μg/L)	% inhibition of release, histamine ([9]; induced by tacrolimus 400 μg/L)	also measured
cyclosporin-A [reference compound]	0.75 ± 0.08	0.78 ± 0.02	4.51 ± 0.41 nM/g tissue	6.5 ± 0.52 nmol/mg protein														
ClC(Cl)(Cl)Cl [CCl4, carbon tetrachloride, reference compound]					105.4 ± 3.8 U/L	26.5 ± 0.11 mg/g												
NCC(=O)O [Glycine, glycine]	0.66 ± 0.5	0.80 ± 0.5	4.56 ± 0.49 nM/g tissue	4.8 ± 0.41 nmol/mg protein	90.2 ± 8.6 U/L	22.2 ± 2.1 mg/g	much less effective	without any mortality being observed	without any mortality being observed	14.2 ± 0.9%	16.5 ± 0.6%	18.5 ± 1.1%	17.2 ± 0.9%	8.8 ± 0.9%	10.4 ± 1.1%	6.5 ± 0.7%	7.5 ± 0.8%	inhibition at 5 µg/mL (perfused rat kidneys; 5 min, hypertension induced by cyclosporin-A 2 mg/L, 5 min, read-out: % inhibition of hypertensive effect after 5 min): 6.3 ± 0.9%; inhibition at 5 µg/mL (perfused rat kidneys; 5 min, hypertension induced by tacrolimus 400 μg/L, 5 min, read-out: % inhibition of hypertensive effect after 5 min): 4.8 ± 7.1%; inhibition at 5 µg/mL (perfused rat kidneys; 20 min, hypertension induced by cyclosporin-A 2 mg/L, 20 min, read-out: % inhibition of hypertensive effect after 20 min): 6.8 ± 0.3%; inhibition at 5 µg/mL (perfused rat kidneys; 20 min, hypertension induced by tacrolimus 400 μg/L, 20 min, read-out: % inhibition of hypertensive effect after 20 min): 7.4 ± 0.9%; action on the morphological damage induced by cyclosporin A ([1]; in words): not significantly detectable; action on the reduction in intracellular ATP ([2]; cyclosporin A, in words): not significantly detectable; tolerability of prolonged oral administration (Sprague Dawley rats [7]): well tolerated; effect on the lipid peroxidation activity induced by cyclosporin-A ([3]; in words): detectable protective effect; action on the release of vasoactive substances such as histamine and endothelin ([9]; cyclosporin A, in words): not significantly detectable
CCC(=O)O[C@H](CC(=O)[O-])C[N+](C)(C)C [Propionyl L-carnitine, propionyl L-carnitine]	0.40 ± 0.06	0.86 ± 0.7	6.05 ± 0.61 nM/g tissue	4.2 ± 0.39 nmol/mg protein	75.8 ± 5.5 U/L	18.8 ± 1.8 mg/g	effective in protecting the kidney	without any mortality being observed	without any mortality being observed	32.8 ± 3.1%	30.5 ± 2.6%	35.1 ± 2.9%	30.8 ± 2.5%	41.2 ± 3.8%	39.5 ± 4.1%	34.7 ± 2.7%	41.5 ± 3.9%	% inhibition of hypertensive effect after 5 min (perfused rat kidneys; hypertension induced by cyclosporin-A 2 mg/L, 5 min): 18.2 ± 1.5%; % inhibition of hypertensive effect after 20 min (perfused rat kidneys; hypertension induced by cyclosporin-A 2 mg/L, 20 min): 28.4 ± 2.1%; % inhibition of hypertensive effect after 5 min (perfused rat kidneys; hypertension induced by tacrolimus 400 μg/L, 5 min): 22.5 ± 2.3%; % inhibition of hypertensive effect after 20 min (perfused rat kidneys; hypertension induced by tacrolimus 400 μg/L, 20 min): 30.7 ± 2.9%; tolerability of prolonged oral administration (Sprague Dawley rats [6]; oral 500 mg/kg each for 20 days consecutively, weight gain and blood chemistry without toxic abnormalities): well tolerated
